From patent US9708286B2, “Ingenol-3-acylates III and ingenol-3-carbamates” (LEO Laboratories Limited, priority 2010, dated 2017)

Key:
Assay type in all cases: cell-based
[1] = system: PMN's (polymorphonuclear leukocytes); test: Neutrophil oxidative burst; conditions: Leukocyte, 40 min, read-out: Neutrophil oxidative burst Rel EC50 range, PMN from buffy coats, 40 min at RT, hydroethidine fluorescence; normalized to 5×10^−7 M PEP0005
Summary of the method: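 Human buffy-coat neutrophils (2.5×10^5/well) in HBSS with 0.1% BSA, 5 mM glucose treated with compound premixed with 10 μM hydroethidine for 40 min at RT; fluorescence read at 485/579 nm. Normalized to 5×10^−7 M PEP0005; Rel EC50 is midway between fitted top and bottom, Abs EC50 gives 50% of PEP0005 maximum.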

[2] = system: Primary human epidermal keratinocytes, HeKa; test: HeKa cytokine release (IL-8); conditions: Homo sapiens, HEKa, 6 h, read-out: HeKa cytokine release (IL-8) Rel EC50 range
Protocol: Primary human epidermal keratinocytes, HeKa, were seeded (10.000 cells/well) in 96-well plates the day before the assay. Test compounds were diluted in DMSO (dimethyl sulfoxide) and further diluted in assay medium and pipetted into wells of 96 well-plates containing HeKa cells. The plates were incubated for 6 h at 37° C. in humidified air with 5% CO2. Plates were centrifuged briefly to spin down cells at 4° C., the supernatant was removed and analysed by Meso Scale Discovery (MSD) 4-spot cytokine assay (Pro-inflammatory II Ultra Sensitive kit, MSD, MD, USA). The MSD assay employs a sandwich immunoassay format where capture antibodies are coated in a patterned array on the bottom of the wells of a 4-Spot-Multi-MSD plate. Standard samples were incubated in the MULTI-SPOT plates as well, and the cytokine (IL-8) binds to its corresponding capture antibody spot. The cytokine level was quantitated on a SECTOR™ Imager using a cytokine-specific Detection Antibody labelled with MSD SULFO-TAG™ reagent.
Test compound titration curves were fitted to a four-parameter sigmoidal curve after normalizing the effect of the test compound to the effect of the positive control (1.5×10^−7 M PEP0005). Rel EC50 denotes the concentration of test compound producing an effect that is midway between the fitted top and bottom.

[3] = system: HeLa cells; test: Necrosis assay; conditions: Homo sapiens, HeLa, 0.5 h, read-out: HeLa necrosis EC50 range
Summary of the method: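 HeLa cells treated with compound at 10 μM to 400 μM (final) for 30 min at 37° C., viability then measured by PrestoBlue fluorescence (ex 535/em 630 nm). Normalized to 1% DMSO and 400 μM ingenol mebutate controls; AbsEC50 from four-parameter sigmoidal fit.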

SMILES	EC50 [1]	EC50 [2]	EC50 [3]
CC1=C[C@]23C(=O)[C@@H](C=C(CO)[C@@H](O)[C@]2(O)[C@H]1OC(=O)c1cccc2cc[nH]c12)[C@H]1[C@@H](C[C@H]3C)C1(C)C [Compound 531, Ingenol 3-(1H-indole-7-carboxylate)]	20 to 100 nM	< 20 nM	< 150000 nM
CC1=C[C@]23C(=O)[C@@H](C=C(CO)[C@@H](O)[C@]2(O)[C@H]1OC(=O)c1cc(C)nn1C(C)(C)C)[C@H]1[C@@H](C[C@H]3C)C1(C)C [Compound 532, Ingenol 3-(2-tert-butyl-5-methyl-pyrazole-3-carboxylate)]	20 to 100 nM	< 20 nM	< 150000 nM
CC1=C[C@]23C(=O)[C@@H](C=C(CO)[C@@H](O)[C@]2(O)[C@H]1OC(=O)c1cc(C(C)(C)C)nn1C)[C@H]1[C@@H](C[C@H]3C)C1(C)C [Compound 533, Ingenol 3-(5-tert-butyl-2-methyl-pyrazole-3-carboxylate)]	< 20 nM	< 20 nM	< 150000 nM
CC1=C[C@]23C(=O)[C@@H](C=C(CO)[C@@H](O)[C@]2(O)[C@H]1OC(=O)c1c(C)nc2sccn12)[C@H]1[C@@H](C[C@H]3C)C1(C)C [Compound 534, Ingenol 3-(6-methylimidazo[2,1-b]thiazole-5-carboxylate)]	< 20 nM	< 20 nM	150000 to 350000 nM
CC1=C[C@]23C(=O)[C@@H](C=C(CO)[C@@H](O)[C@]2(O)[C@H]1OC(=O)c1c(C)oc(C)c1C)[C@H]1[C@@H](C[C@H]3C)C1(C)C [Compound 536, Ingenol 3-(2,4,5-trimethylfuran-3-carboxylate)]	< 20 nM	< 20 nM	150000 to 350000 nM
CC1=C[C@]23C(=O)[C@@H](C=C(CO)[C@@H](O)[C@]2(O)[C@H]1OC(=O)c1sccc1C)[C@H]1[C@@H](C[C@H]3C)C1(C)C [Compound 537, Ingenol 3-(3-methylthiophene-2-carboxylate)]	< 20 nM	< 20 nM	150000 to 350000 nM
CC1=C[C@]23C(=O)[C@@H](C=C(CO)[C@@H](O)[C@]2(O)[C@H]1OC(=O)c1c(N2CCCCC2)cnn1C)[C@H]1[C@@H](C[C@H]3C)C1(C)C [Compound 538, Ingenol 3-(2-methyl-4-(1-piperidyl)pyrazole-3-carboxylate)]	< 20 nM	20 to 100 nM	150000 to 350000 nM
CC1=C[C@]23C(=O)[C@@H](C=C(CO)[C@@H](O)[C@]2(O)[C@H]1OC(=O)c1nc(Cl)sc1C(C)C)[C@H]1[C@@H](C[C@H]3C)C1(C)C [Compound 539, Ingenol 3-(2-chloro-5-isopropyl-thiazole-4-carboxylate)]	20 to 100 nM	< 20 nM	< 150000 nM
CC1=C[C@]23C(=O)[C@@H](C=C(CO)[C@@H](O)[C@]2(O)[C@H]1OC(=O)c1c(Cl)c(C)nn1C)[C@H]1[C@@H](C[C@H]3C)C1(C)C [Compound 540, Ingenol 3-(4-chloro-2,5-dimethyl-pyrazole-3-carboxylate)]	< 20 nM	< 20 nM	< 150000 nM
CC1=C[C@]23C(=O)[C@@H](C=C(CO)[C@@H](O)[C@]2(O)[C@H]1OC(=O)c1c(C)cn(C)c1C)[C@H]1[C@@H](C[C@H]3C)C1(C)C [Compound 541, Ingenol 3-(1,2,4-trimethylpyrrole-3-carboxylate)]	< 20 nM	< 20 nM	150000 to 350000 nM
CC1=C[C@]23C(=O)[C@@H](C=C(CO)[C@@H](O)[C@]2(O)[C@H]1OC(=O)c1c(C)cc(C)n1C)[C@H]1[C@@H](C[C@H]3C)C1(C)C [Compound 542, Ingenol 3-(1,3,5-trimethylpyrrole-2-carboxylate)]	< 20 nM	< 20 nM	< 150000 nM
CC1=C[C@]23C(=O)[C@@H](C=C(CO)[C@@H](O)[C@]2(O)[C@H]1OC(=O)C1N(C(=O)OC(C)(C)C)CCC1(C)C)[C@H]1[C@@H](C[C@H]3C)C1(C)C (stereo partly drawn) [Compound 544, Ingenol 3-(1-tert-butyloxycarbonyl-3,3-dimethylpyrrolidine-2-carboxylate)]	> 100 nM	> 100 nM	150000 to 350000 nM
CC1=C[C@]23C(=O)[C@@H](C=C(CO)[C@@H](O)[C@]2(O)[C@H]1OC(=O)c1c(C)nn(C(C)C)c1C)[C@H]1[C@@H](C[C@H]3C)C1(C)C [Compound 546, Ingenol 3-(1-isopropyl-3,5-dimethyl-pyrazole-4-carboxylate)]	< 20 nM	< 20 nM	150000 to 350000 nM
CCc1onc(C(C)C)c1C(=O)O[C@H]1C(C)=C[C@]23C(=O)[C@@H](C=C(CO)[C@@H](O)[C@]12O)[C@H]1[C@@H](C[C@H]3C)C1(C)C [Compound 547, Ingenol 3-(5-ethyl-3-isopropyl-isoxazole-4-carboxylate)]	20 to 100 nM	< 20 nM	< 150000 nM
CC1=C[C@]23C(=O)[C@@H](C=C(CO)[C@@H](O)[C@]2(O)[C@H]1OC(=O)c1c2ccccc2nn1C)[C@H]1[C@@H](C[C@H]3C)C1(C)C [Compound 548, Ingenol 3-(2-methylindazole-3-carboxylate)]	20 to 100 nM	< 20 nM	150000 to 350000 nM
CC1=C[C@]23C(=O)[C@@H](C=C(CO)[C@@H](O)[C@]2(O)[C@H]1OC(=O)C1=C(C)C(=O)OC12CCCCC2)[C@H]1[C@@H](C[C@H]3C)C1(C)C [Compound 550, Ingenol 3-(2-methyl-3-oxo-4-oxaspiro[4.5]dec-1-ene-1-carboxylate)]	< 20 nM	< 20 nM	< 150000 nM
CC1=C[C@]23C(=O)[C@@H](C=C(CO)[C@@H](O)[C@]2(O)[C@H]1OC(=O)c1c(C)nsc1C)[C@H]1[C@@H](C[C@H]3C)C1(C)C [Compound 552, Ingenol 3-(3,5-dimethylisothiazole-4-carboxylate)]	20 to 100 nM	20 to 100 nM	150000 to 350000 nM
CC1=C[C@]23C(=O)[C@@H](C=C(CO)[C@@H](O)[C@]2(O)[C@H]1OC(=O)c1c(C)nsc1I)[C@H]1[C@@H](C[C@H]3C)C1(C)C [Compound 553, Ingenol 3-(5-iodo-3-methyl-isothiazole-4-carboxylate)]	< 20 nM	< 20 nM	150000 to 350000 nM
COc1ccc(-c2cnn(C)c2C(=O)O[C@H]2C(C)=C[C@]34C(=O)[C@@H](C=C(CO)[C@@H](O)[C@]23O)[C@H]2[C@@H](C[C@H]4C)C2(C)C)cc1 [Compound 554, Ingenol 3-(4-(4-methoxyphenyl)-2-methyl-pyrazole-3-carboxylate)]	< 20 nM	< 20 nM	< 150000 nM
CC1=C[C@]23C(=O)[C@@H](C=C(CO)[C@@H](O)[C@]2(O)[C@H]1OC(=O)c1c(-c2ccccc2C)cnn1C)[C@H]1[C@@H](C[C@H]3C)C1(C)C [Compound 555, Ingenol 3-(4-(2-methylphenyl)-2-methyl-pyrazole-3-carboxylate)]	< 20 nM	< 20 nM	< 150000 nM
CC1=C[C@]23C(=O)[C@@H](C=C(CO)[C@@H](O)[C@]2(O)[C@H]1OC(=O)c1c(-c2ccc(S(C)(=O)=O)cc2)cnn1C)[C@H]1[C@@H](C[C@H]3C)C1(C)C [Compound 556, Ingenol 3-(2-methyl-4-(4-methylsulfonylphenyl)pyrazole-3-carboxylate)]	20 to 100 nM	20 to 100 nM	150000 to 350000 nM
CC1=C[C@]23C(=O)[C@@H](C=C(CO)[C@@H](O)[C@]2(O)[C@H]1OC(=O)c1c(-c2ccccc2)cnn1C)[C@H]1[C@@H](C[C@H]3C)C1(C)C [Compound 557, Ingenol 3-(2-methyl-4-phenyl-pyrazole-3-carboxylate)]	< 20 nM	< 20 nM	< 150000 nM
CC1=C[C@]23C(=O)[C@@H](C=C(CO)[C@@H](O)[C@]2(O)[C@H]1OC(=O)c1c(C)nn(-c2ccccc2)c1C)[C@H]1[C@@H](C[C@H]3C)C1(C)C [Compound 558, Ingenol 3-(3,5-dimethyl-1-phenyl-pyrazole-4-carboxylate)]	< 20 nM	< 20 nM	< 150000 nM
CC1=C[C@]23C(=O)[C@@H](C=C(CO)[C@@H](O)[C@]2(O)[C@H]1OC(=O)c1c(-c2ccccc2)nn(C)c1C)[C@H]1[C@@H](C[C@H]3C)C1(C)C [Compound 559, Ingenol 3-(1,5-dimethyl-3-phenyl-pyrazole-4-carboxylate)]	< 20 nM	< 20 nM	150000 to 350000 nM
